Data taken from PMC10330721, “Chemo-enzymatic synthesis and biological activity evaluation of propenylbenzene derivatives” (Frontiers in Microbiology, 2023).
In brackets after ≈: the same amount, converted by molar mass.

How the values were obtained:
[1] = test system: C. albicans ATTC 90028; assay: Fungistatic activity assay, broth microdilution; assay type: cell-based; conditions: Candida albicans; C. albicans ATTC90028, 24 h, 35°C, tested 10–250 μg/mL; read-out: MIC50
Protocol: (§1) Fungistatic activity was determined using Candida albicans ATCC 90028 from the American Type Culture Collection (ATCC, Manassas, VA, United States), and clinical isolates, C. albicans 636/20, C. albicans 595/20, and C. albicans 38 obtained from Wrocław Medical University, Wrocław, Poland.
(§2) All compounds were tested for biological activity against C. albicans ATTC 90028, C. albicans 636/20, C. albicans 595/20, and C. albicans 38 using the broth microdilution method. YPD medium (20 g glucose, 20 g Bacto Peptone, 10 g yeast extract, and 1 L of distilled water, pH 6.5) was used for the tests. The compound solutions were prepared in DMSO and diluted in YPD to obtain final concentrations in the range of 10–250 μg/mL. One hundred microlitres of each solution was pipetted into the wells of a 96-well microtiter plate. The inoculum was standardized to 0.5 McFarland standard and then diluted to obtain a final suspension with a cell density of 0.5–2.5 × 10^3 CFU/mL. The inoculum size was 100 μL. The positive control comprised DMSO added in the same concentration as the tested compounds in the inoculum, whereas the negative control consisted of DMSO diluted in the broth without the addition of inoculum. The microtiter plates were incubated in a Biosan PST-60 HL Plate Shaker-Thermostat (Riga, Latvia) at 35°C under shaking at 1,000 rpm for 24 h.

[2] = test system: C. albicans 636/20; assay: Fungistatic activity assay, broth microdilution; assay type: cell-based; conditions: Candida albicans; C. albicans 636/20, 24 h, 35°C, tested 10–250 μg/mL; read-out: MIC50
Protocol: as §1, §2

[3] = test system: R. erythropolis DSM44534 and R. erythropolis PCM2150; assay: Substrate inhibition in preparative biotransformation; assay type: cell-based, Rhodococcus erythropolis; conditions: preparative scale, high concentration of substrate (0.2 g in 500 mL PCM medium)
Protocol: (§3) Five hundred millilitres of PCM medium was added into a 2,000-mL Erlenmeyer flask and sterilized at 121°C for 15 min. The medium was inoculated with 5 mL of pre-prepared bacterial cultures at OD600 = 0.3–0.5. The cultures were incubated at 22°C under shaking at 150 rpm for 3 days. Then, 0.2 g of diols 1b–5b dissolved in 5 mL of DMSO was added into the cultures. The samples were extracted after 3, 7, 11 days and evaluated by GC to estimate the progress of the biotransformation.

[4] = Haemolytic activity assay; assay type: cell-based; conditions: human red blood cells (RBCs) from healthy donors, 37°C, read-out: Percentage of haemolysis
Protocol: This test is based on comparison of the cytotoxicity of all tested compounds in human red blood cells (RBCs) with that in a control group. RBCs for this method were obtained from a blood center from examined and healthy donors. The compounds were tested at 10, 20, 40, 60, 80, and 100 μM concentrations. The control sample contained only ethanol in the same volume as the test samples. […] The samples were incubated at 37°C for 1 h. Then, the absorbance at 540 nm was measured using a UV–Vis spectrophotometer (Specord 40, Analytik Jena, Jena, Germany). The haemolytic activity of the compounds was determined as the ratio of the absorbance of haemoglobin in the test samples to that in completely haemolyzed cells multiplied by 100%.

[5] = test system: Dietzia sp. DSM44016; assay: Substrate toxicity in preparative biotransformation; assay type: cell-based; conditions: preparative scale, 0.2 g substrate in 500 mL PCM medium
Protocol: as §3

[6] = test system: Caco-2 cells; assay: Resazurin-based viability assay; assay type: cell-based, human; conditions: 24 h, 1, 50 and 200 μg/mL
Protocol: (§4) The human HepG2 and Caco-2 cell lines were obtained from the American Type Culture Collection (HB-8065™ and HTB-37™) and the MG-63 cell line was obtained from the European Collection of Authenticated Cell Cultures (Merck, Poznań, Poland). HepG2 cells were cultured in Dulbecco’s modified Eagle’s Medium - low glucose (Merck) supplemented with 10% foetal bovine serum (FBS) (Merck). Caco-2 cells were cultured in Dulbecco’s modified Eagle’s medium - high glucose (Merck) supplemented with 10% FBS, 2% HEPES buffer (Thermo Fisher Scientific, Warszawa, Poland), 1% Penicillin–Streptomycin-Amphotericin B Solution (100×, Merck), 1% MEM solution (100×, Thermo Fisher Scientific), and 1% Gentamycin Solution (10 mg/mL, Merck). MG-63 cells were cultured in Minimum Essential Medium (Merck) supplemented with 10% FBS. All cells were cultured in an atmosphere of 5% CO2 at 37°C.
(§5) HepG2, Caco-2, and […] were seeded in 96-well plates at 20,000 cells per well, and MG-63 cells at 10,000 cells per well, as described previously ([Marycz et al., 2012]; [Kornicka et al., 2017]). The tested compounds were dissolved in ethanol at 10 mg/mL. The concentrations were then adjusted to 1, 50, and 200 μg/mL in culture medium. Four controls were prepared: no ethanol added, and 0.01, 0.5, and 2% EtOH. The cells were treated with the compounds for 24 h. Then, cell viability was evaluated using the resazurin-based assay kit (TOX8), as described previously ([Grzesiak et al., 2011]; [Marycz et al., 2018]). The culture medium was replaced with medium containing 10% resazurin dye. The cells were incubated at 37°C in an atmosphere of 5% CO2 for 2 h. Absorbance levels were measured spectrophotometrically (Epoch) at a wavelengths of 600 nm for resazurin and 690 nm as a reference.

[7] = test system: HepG2 cells; assay: Resazurin-based viability assay; assay type: cell-based, human; conditions: 24 h, 1, 50 and 200 μg/mL
Protocol: as §4, §5

[8] = test system: RBCs membrane; assay: Fluorescence spectroscopy of the RBCs membrane (DPH probe anisotropy); assay type: cell-based, human; conditions: for Fluorescence anisotropy of the DPH probe: membranes of RBCs, 37 °C
Protocol: Using the DPH probe, the anisotropy values of cell membranes of RBCs modified with the test compounds were measured. RBCs for this analysis were prepared according to the method described in subsection 2.5.3. Then, the DPH probe was added to RBCs with a haematocrit of 0.2%. The final concentration of the probe in the sample was 1.3 μM. The mixture was incubated protected from light at 37°C for 30 min. Then, the compounds dissolved in ethanol were added. The compounds were tested at 20, 60, and 100 μM concentrations. Samples with compounds and control samples with alcohol of the appropriate concentration were incubated at 37°C for 1 h. Measurements in triplicate were made in quartz cuvettes using a CARY Eclipse fluorimeter (Varian, San Diego, CA, United States) at 37°C. The excitation wavelength for the DPH probe is λexc = 360 nm and the emission wavelength is λem = 426 nm.

[9] = test system: human osteosarcoma MG63 cell line; parameters: method as in Pandit et al., 2020; conditions: ref Pandit et al., 2020; cited from earlier work
[10] = test system: C. albicans 595/20; assay: Fungistatic activity assay, broth microdilution; assay type: cell-based; conditions: Candida albicans; C. albicans 595/20, 24 h, 35°C, tested 10–250 μg/mL; read-out: MIC50
Protocol: as §1, §2

[11] = Free-radical scavenging assay (DPPH test); assay type: biochemical; conditions: DPPH 190 μM in methanol, 1 h, 25°C, absorbance 517 nm
Protocol: The antiradical activity of all compounds was tested using the 2,2-diphenyl-1-picrylhydrazyl (DPPH) test according to a previously described method ([Herald et al., 2012]; [Dudek et al., 2022]). One litre of a fresh solution of 190 μM DPPH in pure methanol was prepared in a dark glass bottle. The solution was kept protected from light and used within a week. The tested compounds and ascorbic acid as a positive control were prepared at concentrations in the range of 5–100 μg/mL. Two hundred microlitres of the test compound dilutions was added to each well of a 96-well microtiter plate. Then, […] of a 190 μM solution of DPPH in methanol was added. DPPH was also added to the negative control, in which 200 μL of methanol was added instead of the test compounds. All samples were tested at least in triplicate. The microtiter plates were incubated in the Biosan PST-60 HL thermoshaker at 25°C under shaking at 1,000 rpm for 1 h. […] EC50 values were calculated using Quest Graph™ EC50 Calculator (AAT Bioquest, Inc.).

[12] = test system: human hepatocellular carcinoma HepG2 cells; parameters: method as in Yoo et al., 2005; Song et al., 2014, 2020; conditions: ref Yoo et al., 2005; Song et al., 2014, 2020; cited from earlier work
[13] = test system: C. albicans strains; assay: Fungistatic activity assay, broth microdilution, values given over several strains; assay type: cell-based, Candida albicans; conditions: Candida albicans; C. albicans 636/20, 595/20, 38 and ATTC90028; read-out: MIC50 (over all tested strains)
Protocol: as §1, §2

| Compound | hemolysis at 1 h, 10 µM [4] [%] | hemolysis at 1 h, 20 µM [4] [%] | hemolysis at 1 h, 40 µM [4] [%] | hemolysis at 1 h, 60 µM [4] [%] | hemolysis at 1 h, 80 µM [4] [%] | hemolysis at 1 h, 100 µM [4] [%] | Fluorescence anisotropy of the DPH probe ([8]; 20 µM) | Fluorescence anisotropy of the DPH probe ([8]; 60 µM) | Fluorescence anisotropy of the DPH probe ([8]; 100 µM) | EC50 antiradical activity [11] [µg/mL] | other results |
| --- | --- | --- | --- | --- | --- | --- | --- | --- | --- | --- | --- |
| CC(O)C(O)c1ccccc1 (stereo not shown) [2b, 1-phenylpropane-1,2-diol] | 1.04 ± 0.275 | 1.08 ± 0.107 | 1 ± 0.295 | 1.32 ± 0.255 | 1.79 ± 0.382 | 1.71 ± 0.054 | 0.286 ± 0.015 | 0.277 ± 0.028 | 0.278 ± 0.011 |  | MIC50 [1]: 125 µg/mL (≈ 821 µM); MIC50 [2]: 121 µg/mL (≈ 795 µM); Inhibitory effect of substrate on the strains (in words) [3]: inhibitory effect; Toxicity of substrate to the strain (in words) [5]: toxic; Effect on Caco-2 proliferation / viability (in words) [6]: strongest inhibition; Effect on HepG2 proliferation / viability (in words) [7]: highest inhibitory effect; Change in DPH anisotropy / RBCs membrane fluidity (in words) ([8]; RBCs, 20, 60 and 100 μM): increase in anisotropy |
| C/C=C/c1ccc(OC)cc1 [3a, anethole] | 1.36 ± 0.296 | 1.14 ± 0.159 | 2.23 ± 0.13 | 2.54 ± 0.267 | 2.2 ± 0.108 | 2.5 ± 0.39 | 0.263 ± 0.005 | 0.261 ± 0.009 | 0.259 ± 0.008 | 19.13 (≈ 129 µM) | Proliferation and apoptosis in MG63 cell line (in words) [9]: caused abrogation in proliferation and induces apoptosis; MIC50 [10]: 62 µg/mL (≈ 418 µM); Effect on growth of HepG2 cells (in words) [12]: inhibited the growth; MIC50 [13]: 62 to 100 µg/mL (≈ 418 to 675 µM) |
| O=C1O[C@H]([C@@H](O)CO)C(O)=C1O [ascorbic acid, reference compound] |  |  |  |  |  |  |  |  |  | 15.21 (≈ 86.4 µM) |  |
